The source of these data is ChEMBL document CHEMBL1201862, “PubChem BioAssay data set” (2004).

Assay [1] has as its target 5-hydroxytryptamine receptor 2A (Mus musculus, UniProt P35363). In kind it is functional, cell-based.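 Note: CHO-K1 cells with tagged receptor and beta-arrestin; agonist potency measured as compound-induced activation of the receptor.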
Another assay deals with Mu-type opioid receptor (Homo sapiens, UniProt P35372). In kind it is functional, cell-based.
The test system of another assay is HEK293. In words: cells. Conditions: Homo sapiens. In kind it is functional, cell-based.
Assay [2] addresses Dual specificity protein phosphatase 3 (Homo sapiens, UniProt P51452). The assay is described as follows: VHR phosphatase inhibition, dose response, selectivity assay for STEP inhibitor project, biochemical (AID 602374). In kind it is functional. Conditions: read-out: IC50_Mean.
The target of assay [3] is T1, Tyrosine-protein phosphatase non-receptor type 11 (Homo sapiens, UniProt Q06124).
T1 sequence (Q06124 whole entry): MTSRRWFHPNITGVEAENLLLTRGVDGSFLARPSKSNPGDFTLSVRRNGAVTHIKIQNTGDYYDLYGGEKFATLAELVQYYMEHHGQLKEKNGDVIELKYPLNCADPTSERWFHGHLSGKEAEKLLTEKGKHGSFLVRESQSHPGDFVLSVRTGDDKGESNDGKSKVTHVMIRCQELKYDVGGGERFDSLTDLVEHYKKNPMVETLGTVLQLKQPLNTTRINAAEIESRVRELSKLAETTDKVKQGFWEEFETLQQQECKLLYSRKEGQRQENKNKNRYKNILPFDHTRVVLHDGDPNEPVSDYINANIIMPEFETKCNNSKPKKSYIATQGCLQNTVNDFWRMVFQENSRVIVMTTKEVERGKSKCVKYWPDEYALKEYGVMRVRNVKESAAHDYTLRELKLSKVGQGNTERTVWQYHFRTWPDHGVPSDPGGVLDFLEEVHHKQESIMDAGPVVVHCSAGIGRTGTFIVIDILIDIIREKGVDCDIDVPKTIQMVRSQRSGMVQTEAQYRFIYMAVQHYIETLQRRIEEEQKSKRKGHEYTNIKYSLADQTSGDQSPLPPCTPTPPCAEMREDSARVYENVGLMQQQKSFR
In words: SHP2 phosphatase inhibition, dose response, selectivity assay for STEP inhibitor project, biochemical (AID 602367). In kind it is functional. Conditions: read-out: IC50_Mean.

In assay [4] the target is Glucose-6-phosphate 1-dehydrogenase (Homo sapiens, UniProt P11413). The assay is described as follows: human G6PD enzyme inhibitors, dose response, selectivity assay for P. falciparum G6PD inhibitor project, biochemical, fluorescence (AID 504792). In kind it is functional.
Glucose-6-phosphate 1-dehydrogenase, sequence (P11413 whole entry): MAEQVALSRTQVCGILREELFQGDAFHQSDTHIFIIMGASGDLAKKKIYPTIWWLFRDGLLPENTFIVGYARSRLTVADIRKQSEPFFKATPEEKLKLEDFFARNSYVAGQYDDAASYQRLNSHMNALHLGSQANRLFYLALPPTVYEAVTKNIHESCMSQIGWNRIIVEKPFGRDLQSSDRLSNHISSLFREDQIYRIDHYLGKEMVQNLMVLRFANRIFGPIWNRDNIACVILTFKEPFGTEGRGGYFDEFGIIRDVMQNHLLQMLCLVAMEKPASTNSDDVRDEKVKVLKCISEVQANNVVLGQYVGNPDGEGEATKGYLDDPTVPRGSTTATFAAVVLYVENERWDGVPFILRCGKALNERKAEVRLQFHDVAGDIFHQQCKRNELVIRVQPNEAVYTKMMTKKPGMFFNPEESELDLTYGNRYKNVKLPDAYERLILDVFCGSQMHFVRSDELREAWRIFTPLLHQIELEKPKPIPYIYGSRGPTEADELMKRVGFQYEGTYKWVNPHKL
Assay [5] addresses T2, Tyrosine-protein phosphatase non-receptor type 5 (Homo sapiens, UniProt P54829).
T2 sequence (P54829 whole entry): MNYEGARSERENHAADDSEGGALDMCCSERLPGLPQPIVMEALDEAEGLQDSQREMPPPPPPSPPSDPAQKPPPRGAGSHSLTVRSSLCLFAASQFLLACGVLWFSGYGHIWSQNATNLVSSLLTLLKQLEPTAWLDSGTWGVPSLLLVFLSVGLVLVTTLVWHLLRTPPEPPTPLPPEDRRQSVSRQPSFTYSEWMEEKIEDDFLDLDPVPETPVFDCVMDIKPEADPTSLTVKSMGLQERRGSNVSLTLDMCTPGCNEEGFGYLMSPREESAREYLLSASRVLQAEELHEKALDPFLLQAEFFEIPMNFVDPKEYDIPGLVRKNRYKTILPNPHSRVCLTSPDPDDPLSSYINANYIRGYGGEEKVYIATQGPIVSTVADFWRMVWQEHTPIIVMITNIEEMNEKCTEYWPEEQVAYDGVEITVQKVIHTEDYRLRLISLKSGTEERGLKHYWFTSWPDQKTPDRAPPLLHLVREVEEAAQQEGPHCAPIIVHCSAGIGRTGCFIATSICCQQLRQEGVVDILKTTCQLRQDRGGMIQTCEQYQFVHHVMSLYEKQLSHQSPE
The assay is described as follows: STEP phosphatase inhibitors, confirmation, biochemical, fluorescence intensity, uHTS hits (AID 602372). In kind it is functional. Conditions: read-out: IC50_Mean.

Assay [6] has as its target T3, Nuclear receptor subfamily 0 group B member 1 (Homo sapiens, UniProt P51843).
T3 sequence (P51843 whole entry): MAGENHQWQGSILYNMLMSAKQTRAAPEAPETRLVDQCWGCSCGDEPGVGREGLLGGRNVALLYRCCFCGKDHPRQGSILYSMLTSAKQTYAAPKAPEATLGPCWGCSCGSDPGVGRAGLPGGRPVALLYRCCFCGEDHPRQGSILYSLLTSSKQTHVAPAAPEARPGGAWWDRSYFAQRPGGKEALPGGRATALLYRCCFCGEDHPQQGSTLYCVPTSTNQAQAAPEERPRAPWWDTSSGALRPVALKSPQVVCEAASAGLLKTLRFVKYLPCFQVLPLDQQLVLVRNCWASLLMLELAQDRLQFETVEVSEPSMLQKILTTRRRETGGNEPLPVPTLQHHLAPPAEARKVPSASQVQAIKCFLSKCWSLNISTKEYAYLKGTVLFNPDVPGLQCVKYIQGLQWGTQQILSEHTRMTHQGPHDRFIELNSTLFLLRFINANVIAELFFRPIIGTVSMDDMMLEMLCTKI
The assay is described as follows: Luminescence-based cell-based high throughput dose response assay for inhibitors of the orphan nuclear receptor subfamily 0, group B, member 1 (DAX1; NR0B1). [Related pubchem assays (depositor defined):AID504766, AID504790]. In kind it is functional.

The target in assay [7] is Tyrosine-protein phosphatase non-receptor type 22 (Homo sapiens, UniProt Q9Y2R2). The assay is described as follows: PTPN22 phosphatase inhibition, dose response, selectivity assay for STEP inhibitor project, biochemical (AID 624241). In kind it is functional.
Tyrosine-protein phosphatase non-receptor type 22, sequence (Q9Y2R2 whole entry): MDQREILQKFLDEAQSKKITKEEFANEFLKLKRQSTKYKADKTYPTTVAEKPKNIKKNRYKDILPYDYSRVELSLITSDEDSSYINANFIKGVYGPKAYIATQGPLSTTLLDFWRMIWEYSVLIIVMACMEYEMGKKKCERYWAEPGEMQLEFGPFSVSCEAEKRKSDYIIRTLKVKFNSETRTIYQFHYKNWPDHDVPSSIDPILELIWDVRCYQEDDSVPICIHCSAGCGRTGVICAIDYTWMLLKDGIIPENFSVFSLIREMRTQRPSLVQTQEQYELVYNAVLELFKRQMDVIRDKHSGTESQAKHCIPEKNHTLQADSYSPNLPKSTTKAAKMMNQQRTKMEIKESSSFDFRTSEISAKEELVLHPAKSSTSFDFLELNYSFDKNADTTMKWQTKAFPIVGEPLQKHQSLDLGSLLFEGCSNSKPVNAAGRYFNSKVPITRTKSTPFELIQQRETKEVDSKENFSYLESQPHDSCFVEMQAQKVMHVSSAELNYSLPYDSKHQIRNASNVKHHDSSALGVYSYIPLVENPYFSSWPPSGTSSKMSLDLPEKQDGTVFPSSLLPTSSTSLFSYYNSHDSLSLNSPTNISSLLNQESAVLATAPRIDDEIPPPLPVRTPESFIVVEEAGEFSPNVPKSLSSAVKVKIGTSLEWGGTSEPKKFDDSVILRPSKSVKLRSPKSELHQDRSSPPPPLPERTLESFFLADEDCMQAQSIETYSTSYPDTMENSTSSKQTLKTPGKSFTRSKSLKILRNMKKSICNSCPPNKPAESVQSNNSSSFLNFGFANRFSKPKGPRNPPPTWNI
Assay [8] concerns the target T4, Sentrin-specific protease 8 (Homo sapiens, UniProt Q96LD8).
T4 sequence (Q96LD8 whole entry): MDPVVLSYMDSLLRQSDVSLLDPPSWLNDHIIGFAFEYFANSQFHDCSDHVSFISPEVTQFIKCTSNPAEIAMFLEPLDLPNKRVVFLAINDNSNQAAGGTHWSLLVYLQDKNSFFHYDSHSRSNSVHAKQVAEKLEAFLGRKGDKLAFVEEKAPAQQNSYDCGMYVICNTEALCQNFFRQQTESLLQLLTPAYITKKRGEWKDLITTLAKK
In kind it is functional.

Assay [9] has as its target T4, Sentrin-specific protease 8. In kind it is functional. This is another data set of the same source.
A further assay concerns the target T5, Caspase-3 (Homo sapiens, UniProt P42574).
T5 sequence (P42574 whole entry): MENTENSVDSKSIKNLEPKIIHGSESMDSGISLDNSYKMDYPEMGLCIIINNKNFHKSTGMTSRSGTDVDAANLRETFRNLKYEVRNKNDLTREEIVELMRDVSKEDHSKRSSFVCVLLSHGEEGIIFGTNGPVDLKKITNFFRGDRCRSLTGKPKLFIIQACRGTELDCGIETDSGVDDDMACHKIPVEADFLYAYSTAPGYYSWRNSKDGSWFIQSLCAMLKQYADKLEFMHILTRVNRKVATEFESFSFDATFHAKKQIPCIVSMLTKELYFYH
In words: Dose-response confirmation of uHTS inhibitor hits of Sentrin-Specific Protease 8 in a Caspase-3 Fluorescence assay. In kind it is functional.

The target in assay [10] is Broad substrate specificity ATP-binding cassette transporter ABCG2 (Homo sapiens, UniProt Q9UNQ0). In words: ABCG2 efflux pump inhibitors, dose response, Ig-MXP3 cells, flow cytometry (AID 1690). In kind it is functional. On the technique in general: In flow cytometry, cells or beads pass a laser one at a time.
Broad substrate specificity ATP-binding cassette transporter ABCG2, sequence (Q9UNQ0 whole entry): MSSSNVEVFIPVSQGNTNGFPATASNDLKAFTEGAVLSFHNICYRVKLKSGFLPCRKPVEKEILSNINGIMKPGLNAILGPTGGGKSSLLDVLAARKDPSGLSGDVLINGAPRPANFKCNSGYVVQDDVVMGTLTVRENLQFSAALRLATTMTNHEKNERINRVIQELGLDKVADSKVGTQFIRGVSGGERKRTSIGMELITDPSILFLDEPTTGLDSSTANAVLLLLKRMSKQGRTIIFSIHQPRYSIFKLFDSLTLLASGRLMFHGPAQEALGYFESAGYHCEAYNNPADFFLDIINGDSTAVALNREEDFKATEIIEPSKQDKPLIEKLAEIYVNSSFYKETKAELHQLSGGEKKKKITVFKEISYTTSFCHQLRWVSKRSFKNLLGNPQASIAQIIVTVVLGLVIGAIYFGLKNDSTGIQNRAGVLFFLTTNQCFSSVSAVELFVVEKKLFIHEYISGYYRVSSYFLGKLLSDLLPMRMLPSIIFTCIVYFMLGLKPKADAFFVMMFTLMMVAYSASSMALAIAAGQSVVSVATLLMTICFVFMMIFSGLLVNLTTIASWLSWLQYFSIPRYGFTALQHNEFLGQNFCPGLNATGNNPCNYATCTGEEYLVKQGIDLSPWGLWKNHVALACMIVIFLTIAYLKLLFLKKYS
Assay [11] in a line: L. donovani amastigote growth inhibition, dose response, axenic amastigotes, plate reader, cherry pick (AID 651891). In kind it is functional, cell-based. Conditions: Leishmania donovani.
Assay [12] in a line: Inhibition of T. cruzi Tulahuen strain amastigotes in L-6 muscle cells Measured in Cell-Based and Microorganism Combination System Using Plate Reader - 2138-03_Inhibitor_Dose_CherryPick_Activity. In kind it is functional. Particulars: Rattus norvegicus, L6.
Assay [13] is described as follows: intracellular Trypanosoma cruzi inhibitors in host cells – cell-based, plate reader, cherry-pick samples, set 3, dose response (AID 651818).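 Note: compounds incubated with infected cells for about four days.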 In kind it is functional.
Assay [14] in a line: Inhibition of Plasmodium falciparum NF54 Measured in Cell-Based System Using Plate Reader - 2138-11_Inhibitor_Dose_CherryPick_Activity. In kind it is functional.
Assay [15] can be described thus: T. b. rhodesiense proliferation inhibition, dose response, STIB900 strain, plate reader, cherry pick (AID 651893). In kind it is functional, cell-based. Particulars: Trypanosoma brucei.
Assay [16] can be described thus: cytotoxicity in L-6 rat myocytes, dose response, cytotoxicity control, cell-based, plate reader, cherry-pick (AID 651896). In kind it is functional.

A word on the EC50: it is the midpoint of the concentration-response curve. What is called AC50 is the concentration giving half of the maximal activity seen.

The source made the active and inactive calls.

5-hydroxytryptamine receptor 2A, sequence (P35363 whole entry): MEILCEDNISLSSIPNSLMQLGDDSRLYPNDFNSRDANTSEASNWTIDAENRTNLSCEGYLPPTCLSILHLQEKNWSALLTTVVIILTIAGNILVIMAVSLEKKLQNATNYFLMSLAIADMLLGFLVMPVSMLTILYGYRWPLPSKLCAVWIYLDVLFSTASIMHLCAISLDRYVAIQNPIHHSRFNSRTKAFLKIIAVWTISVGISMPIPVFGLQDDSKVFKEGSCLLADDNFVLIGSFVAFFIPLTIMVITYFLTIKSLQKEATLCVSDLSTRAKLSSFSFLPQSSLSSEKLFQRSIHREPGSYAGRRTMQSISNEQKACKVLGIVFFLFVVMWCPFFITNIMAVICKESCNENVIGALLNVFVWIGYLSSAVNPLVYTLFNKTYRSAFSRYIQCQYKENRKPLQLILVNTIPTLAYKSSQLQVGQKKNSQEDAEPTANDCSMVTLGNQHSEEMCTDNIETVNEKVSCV
Dual specificity protein phosphatase 3, sequence (P51452 whole entry): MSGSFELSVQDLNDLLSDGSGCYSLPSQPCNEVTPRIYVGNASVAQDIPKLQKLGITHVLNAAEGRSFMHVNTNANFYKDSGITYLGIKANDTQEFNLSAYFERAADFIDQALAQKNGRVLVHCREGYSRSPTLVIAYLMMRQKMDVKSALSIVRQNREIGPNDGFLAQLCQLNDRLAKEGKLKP
Mu-type opioid receptor, sequence (P35372 whole entry): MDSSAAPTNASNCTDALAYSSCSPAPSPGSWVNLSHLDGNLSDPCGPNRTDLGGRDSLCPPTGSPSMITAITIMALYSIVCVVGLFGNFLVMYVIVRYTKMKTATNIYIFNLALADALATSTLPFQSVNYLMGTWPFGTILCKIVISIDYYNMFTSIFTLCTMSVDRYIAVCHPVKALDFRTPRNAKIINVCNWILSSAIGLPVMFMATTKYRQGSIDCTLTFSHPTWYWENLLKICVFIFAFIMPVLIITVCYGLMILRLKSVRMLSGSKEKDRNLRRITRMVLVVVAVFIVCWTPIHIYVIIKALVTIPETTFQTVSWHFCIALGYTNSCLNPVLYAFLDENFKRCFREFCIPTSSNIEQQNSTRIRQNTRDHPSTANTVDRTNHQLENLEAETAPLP

As for `COc1cccc(CN2CCN(C(=O)c3ccco3)CC2)c1`, the EC50 in assay [1] was 1.16 µM (active); at Mu-type opioid receptor it was 92.5 µM (inactive).

On to `CCN1CCN(C(=S)c2ccc(O)cc2)CC1`, for which the IC50 with HEK293 was > 67.6 µM (inactive); in assay [2] it was 0.74 µM (active); in assay [3] it was 0.712 µM (active); in [4], > 80 µM (inactive); in assay [5] it was 20.1 µM (inactive); in assay [6] it was > 67.6 µM (inactive). In addition, in assay [7], the IC50 is 45.1 µM (inactive).

As for `COc1ccc(OC)c(S(=O)(=O)N(C)CC(=O)N2CCc3ccccc3C2)c1`, the IC50 in assay [8] is 8.07 µM (active); in assay [9], 9.57 µM (active); on Caspase-3 it was 30.8 µM (active).

For the compound `Cc1cc(C)c(C#N)c(SCc2c(F)cccc2[N+](=O)[O-])n1`, in assay [10], the EC50 was 3.82 µM (active).

Turning to `C[C@H]1CN([C@@H](C)CO)C(=O)c2cccc(NC(=O)c3ccncc3)c2O[C@H]1CN(C)Cc1ccccc1`, the IC50 was > 100 µM (inactive) in assay [11]; 19.2 µM (inactive) in assay [12]; 19.2 µM (inactive) in [14]; 51.5 µM (inactive) in assay [15]; > 100 µM (inactive) in assay [16]. The AC50 in assay [13] was 0.267 µM (active).
